Reference: US8680159B2, “Bradykinin 1 receptor modulating compounds” (Gruenenthal GmbH, priority 2010, dated 2014)

Key:
[1] = molecular target: T1, human B1R receptor (CHO K1 cells stably transfected with the human B1R gene) (Homo sapiens, UniProt P46663); assay: Functional study on the bradykinin receptor 1 (B1R), Ca2+ fluorescence (Fluo-4) FLIPR/Novostar assay, hB1R cells; type: cell-based; conditions: CHO-K1, read-out: % Inhibition (h-B1R) at 10 μM
T1 construct: expressed in transfected cells; host or cells: CHO K1 cells (Chinese hamster ovary), stably transfected
T1 sequence (P46663 1-353): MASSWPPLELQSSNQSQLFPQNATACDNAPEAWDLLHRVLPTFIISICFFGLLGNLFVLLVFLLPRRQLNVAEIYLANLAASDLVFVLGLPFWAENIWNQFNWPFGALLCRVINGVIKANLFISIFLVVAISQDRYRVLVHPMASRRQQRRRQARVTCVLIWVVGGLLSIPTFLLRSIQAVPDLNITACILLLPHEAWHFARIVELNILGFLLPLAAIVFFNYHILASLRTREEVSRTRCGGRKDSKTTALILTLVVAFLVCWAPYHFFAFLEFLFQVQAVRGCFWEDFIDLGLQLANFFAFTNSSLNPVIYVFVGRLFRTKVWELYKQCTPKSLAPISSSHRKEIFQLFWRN
Summary of the method: (§1)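 Stably transfected CHO K1 cells carrying human or rat B1R were Fluo-4 loaded and Ca2+ fluorescence read by FLIPR or Novostar. Compounds were added first at 10 μM for % activation, then the EC80 agonist was applied after 6-20 min (human: Lys-Des-Arg9-bradykinin; rat: Des-Arg9-bradykinin). % inhibition is relative to maximum achievable inhibition, and IC50 comes from concentration series.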

[2] = molecular target: T2, B1R receptor of the rat (CHO K1 cells stably transfected with the B1R gene of the rat) (Rattus norvegicus, UniProt P97583); assay: Functional study on the bradykinin receptor 1 (B1R), Ca2+ fluorescence (Fluo-4) FLIPR/Novostar assay, rB1R cells; type: cell-based; conditions: for inhibition at 10 µM: CHO-K1, 10 μM, read-out: % Inhibition (r-B1R) at 10 μM
T2 construct: expressed in transfected cells; host or cells: CHO K1 cells (Chinese hamster ovary), stably transfected
T2 sequence (P97583 1-337): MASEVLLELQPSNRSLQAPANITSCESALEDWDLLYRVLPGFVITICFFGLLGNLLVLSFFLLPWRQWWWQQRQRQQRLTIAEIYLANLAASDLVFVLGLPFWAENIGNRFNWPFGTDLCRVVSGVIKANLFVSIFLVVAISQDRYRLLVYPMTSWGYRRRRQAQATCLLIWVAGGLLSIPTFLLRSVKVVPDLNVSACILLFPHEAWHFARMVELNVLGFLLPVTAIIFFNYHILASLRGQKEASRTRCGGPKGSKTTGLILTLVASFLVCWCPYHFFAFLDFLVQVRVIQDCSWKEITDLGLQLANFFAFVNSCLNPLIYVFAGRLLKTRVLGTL
Summary of the method: as §1

SMILES	inhibition at 10 µM [1]	inhibition at 10 µM [2]	% Inhibition (r-B1R) at 10 μM ([2]; 10 μM)
CC(C)CC(=O)NC1CCc2ccc(C(=O)N(C)C3CCN(c4ccncc4)CC3)cc21 (stereo not shown) [CC_H-41, N-Methyl-3-(3-methyl-butanoylamino)-N-(1-pyridin-4-yl-piperidin-4-yl)-2,3-dihydro-1H-indene-5-carboxylic acid amide]	100%	104%	–
CN(C(=O)c1ccc2c(c1)C(NC(=O)c1cnccc1C(F)(F)F)CCO2)C1CCN(c2ccncc2)CC1 (stereo not shown) [CC_H-42, N-[6-[Methyl-(1-pyridin-4-yl-piperidin-4-yl)-carbamoyl]-3,4-dihydro-2H-chromen-4-yl]-4-(trifluoromethyl)-pyridine-3-carboxylic acid amide]	99%	104%	–
CC(C)CC(=O)NC1CC(C)(C)c2ccc(C(=O)N(C)C3CCN(c4ccncc4)CC3)cc21 (stereo not shown) [CC_H-43, N,1,1-Trimethyl-3-(3-methyl-butanoylamino)-N-(1-pyridin-4-yl-piperidin-4-yl)-2,3-dihydro-indene-5-carboxylic acid amide]	100%	105%	–
CN(C(=O)NC1CCc2ccc(C(=O)N(C)C3CCN(c4ccncc4)CC3)cc21)c1ccccc1Cl (stereo not shown) [CC_H-44, 3-[[(2-Chlorophenyl)-methyl-carbamoyl]amino]-N-methyl-N-(1-pyridin-4-yl-piperidin-4-yl)-2,3-dihydro-1H-indene-5-carboxylic acid amide]	100%	104%	–
CN(C(=O)c1ccc2c(c1)C(N(C)C(=O)c1cncnc1)CC2)C1CCN(c2ccncc2)CC1 (stereo not shown) [CC_H-45, N-Methyl-N-[6-[methyl-(1-pyridin-4-yl-piperidin-4-yl)-carbamoyl]-2,3-dihydro-1H-inden-1-yl]-pyrimidine-5-carboxylic acid amide]	96%	88%	–
CN(C(=O)c1ccc2c(c1)C(N(C)S(=O)(=O)Cc1ccccc1C(F)(F)F)CC2)C1CCN(c2ccncc2)CC1 (stereo not shown) [CC_H-46, N-Methyl-3-[methyl-[[2-(trifluoromethyl)-phenyl]-methylsulfonyl]-amino]-N-(1-pyridin-4-yl-piperidin-4-yl)-2,3-dihydro-1H-indene-5-carboxylic acid amide]	99%	104%	–
CN(C(=O)c1ccc2c(c1)C(NS(=O)(=O)c1c(Cl)cccc1C(F)(F)F)CCO2)C1CCN(c2ccncc2)CC1 (stereo not shown) [CC_H-47, 4-[[[2-Chloro-6-(trifluoromethyl)-phenyl]sulfonyl]amino]-N-methyl-N-(1-pyridin-4-yl-piperidin-4-yl)-3,4-dihydro-2H-chromene-6-carboxylic acid amide]	99%	104%	–
CN(C(=O)c1ccc2c(c1)C(NC(=O)c1cncnc1)CC2)C1CCN(c2ccncc2)CC1 (stereo not shown) [CC_H-48, N-[6-[Methyl-(1-pyridin-4-yl-piperidin-4-yl)-carbamoyl]-2,3-dihydro-1H-inden-1-yl]-pyrimidine-5-carboxylic acid amide]	96%	78%	–
CN(C(=O)c1ccc2c(c1)C(NC(=O)CCC1CCCC1)CCO2)C1CCN(c2ccncc2)CC1 (stereo not shown) [CC_H-49, 4-(3-Cyclopentyl-propanoylamino)-N-methyl-N-(1-pyridin-4-yl-piperidin-4-yl)-3,4-dihydro-2H-chromene-6-carboxylic acid amide]	99%	102%	–
O=C(NCCC1CCN(c2ccncc2)CC1)c1ccc2c(c1)C(NS(=O)(=O)c1c(Cl)cccc1C(F)(F)F)CC2 (stereo not shown) [CC_H-50, 3-[[[2-Chloro-6-(trifluoromethyl)-phenyl]sulfonyl]amino]-N-[2-(1-pyridin-4-yl-piperidin-4-yl)-ethyl]-2,3-dihydro-1H-indene-5-carboxylic acid amide]	100%	101%	–
CN(C(=O)N(C)C1CCc2ccc(C(=O)N(C)C3CCN(c4ccncc4)CC3)cc21)c1ccccc1Cl (stereo not shown) [CC_H-51, 3-[[(2-Chlorophenyl)-methyl-carbamoyl]-methyl-amino]-N-methyl-N-(1-pyridin-4-yl-piperidin-4-yl)-2,3-dihydro-1H-indene-5-carboxylic acid amide]	99%	90%	–
CN(C(=O)c1ccc2c(c1)C(NC(=O)c1cccc(Cl)c1Cl)CC2)C1CCN(c2ccc3cnccc3c2)CC1 (stereo not shown) [CC_H-52, 3-[(2,3-Dichloro-benzoyl)amino]-N-(1-isoquinolin-6-yl-piperidin-4-yl)-N-methyl-2,3-dihydro-1H-indene-5-carboxylic acid amide]	99%	98%	–
CN(C(=O)c1ccc2c(c1)C(NS(=O)(=O)c1c(Cl)cccc1C(F)(F)F)CC2)C1CCN(c2ccncc2)CC1 (stereo not shown) [CC_H-54, 3-[[[2-Chloro-6-(trifluoromethyl)-phenyl]sulfonyl]amino]-N-methyl-N-(1-pyridin-4-yl-piperidin-4-yl)-2,3-dihydro-1H-indene-5-carboxylic acid amide]	100%	104%	–
CN(C(=O)c1ccc2c(c1)C(NS(=O)(=O)Cc1ccccc1C(F)(F)F)CC2)C1CCN(c2ccc3cnccc3c2)CC1 (stereo not shown) [CC_H-55, N-(1-Isoquinolin-6-yl-piperidin-4-yl)-N-methyl-3-[[[2-(trifluoromethyl)-phenyl]-methylsulfonyl]amino]-2,3-dihydro-1H-indene-5-carboxylic acid amide]	99%	96%	–

Results, then the molecule that gave them:

inhibition at 10 µM [1]	inhibition at 10 µM [2]	% Inhibition (r-B1R) at 10 μM ([2]; 10 μM)	SMILES
100%	–	101%	CN(C(=O)NC1CCOc2ccc(C(=O)N(C)C3CCN(c4ccncc4)CC3)cc21)c1ccccc1Cl (stereo not shown) [CC_H-57, 4-[[(2-Chlorophenyl)-methyl-carbamoyl]amino]-N-methyl-N-(1-pyridin-4-yl-piperidin-4-yl)-3,4-dihydro-2H-chromene-6-carboxylic acid amide]
96%	77%	–	CN(C(=O)c1ccc2c(c1)CCC2NC(=O)C1CCCCC1)C1CCN(c2ccncc2)CC1 (stereo not shown) [CC_H-58, 1-(Cyclohexanecarbonylamino)-N-methyl-N-(1-pyridin-4-yl-piperidin-4-yl)-2,3-dihydro-1H-indene-5-carboxylic acid amide]
99%	103%	–	CN(C(=O)c1ccc2c(c1)C(NC(=O)CCC1CCCC1)CC2)C1CCN(c2ccncc2)CC1 (stereo not shown) [CC_H-59, 3-(3-Cyclopentyl-propanoylamino)-N-methyl-N-(1-pyridin-4-yl-piperidin-4-yl)-2,3-dihydro-1H-indene-5-carboxylic acid amide]
100%	80%	–	CN(C(=O)c1ccc2c(c1)CCC2NS(=O)(=O)Cc1ccccc1C(F)(F)F)C1CCN(c2ccncc2)CC1 (stereo not shown) [CC_H-61, N-Methyl-N-(1-pyridin-4-yl-piperidin-4-yl)-1-[[[2-(trifluoromethyl)-phenyl]-methylsulfonyl]amino]-2,3-dihydro-1H-indene-5-carboxylic acid amide]
84%	101%	–	CN(C(=O)c1ccc2c(c1)C(NC(=O)c1c(Cl)cccc1C(F)(F)F)CC2)C1CCN(c2ccc3cnccc3c2)CC1 (stereo not shown) [CC_H-62, 3-[[2-Chloro-6-(trifluoromethyl)-benzoyl]amino]-N-(1-isoquinolin-6-yl-piperidin-4-yl)-N-methyl-2,3-dihydro-1H-indene-5-carboxylic acid amide]
99%	103%	–	CN(C(=O)c1ccc2c(c1)C(NC(=O)c1cc(F)ccc1Cl)CCO2)C1CCN(c2ccncc2)CC1 (stereo not shown) [CC_H-63, 4-[(2-Chloro-5-fluoro-benzoyl)amino]-N-methyl-N-(1-pyridin-4-yl-piperidin-4-yl)-3,4-dihydro-2H-chromene-6-carboxylic acid amide]
100%	87%	–	CN(C(=O)c1ccc2c(c1)CCC2NC(=O)c1cc(F)ccc1Cl)C1CCN(c2ccncc2)CC1 (stereo not shown) [CC_H-64, 1-[(2-Chloro-5-fluoro-benzoyl)amino]-N-methyl-N-(1-pyridin-4-yl-piperidin-4-yl)-2,3-dihydro-1H-indene-5-carboxylic acid amide]
98%	48%	–	CN(C(=O)c1ccc2c(c1)CCC2NC(=O)CCC1CCCC1)C1CCN(c2ccncc2)CC1 (stereo not shown) [CC_H-65, 1-(3-Cyclopentyl-propanoylamino)-N-methyl-N-(1-pyridin-4-yl-piperidin-4-yl)-2,3-dihydro-1H-indene-5-carboxylic acid amide]
99%	86%	–	Cc1cccc(C)c1C(=O)NC1CCc2cc(C(=O)N(C)C3CCN(c4ccncc4)CC3)ccc21 (stereo not shown) [CC_H-66, 1-[(2,6-Dimethyl-benzoyl)amino]-N-methyl-N-(1-pyridin-4-yl-piperidin-4-yl)-2,3-dihydro-1H-indene-5-carboxylic acid amide]
